{
  "source": "patent US5714594A",
  "about": "“cDNA cloning and expression of human liver estrogen sulfotransferase” (Mayo Foundation for Medical Education and Research, priority 1994, dated 1998)",
  "key": {"human liver EST [1]": {"target": "T1, human liver EST (Homo sapiens, UniProt P49888)", "T1 sequence (P49888 1-294)": "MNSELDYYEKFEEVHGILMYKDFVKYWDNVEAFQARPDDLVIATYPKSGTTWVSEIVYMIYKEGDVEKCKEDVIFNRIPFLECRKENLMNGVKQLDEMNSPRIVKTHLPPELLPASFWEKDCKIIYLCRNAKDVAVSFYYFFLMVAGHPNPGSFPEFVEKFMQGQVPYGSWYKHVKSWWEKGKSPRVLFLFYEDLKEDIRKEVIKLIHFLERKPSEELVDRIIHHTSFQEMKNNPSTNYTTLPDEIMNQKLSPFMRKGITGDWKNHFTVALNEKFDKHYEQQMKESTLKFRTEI", "assay": "ST activities in high-speed supernatants of COS-1 cells transfected with human liver EST cDNA", "type": "biochemical", "set-up": "expressed in transfected cells; host or cells: COS-1 cells, vector p91023(B); 100,000×g high-speed supernatant", "details": "substance is the sulfate acceptor substrate; transfected COS-1 cell preparation; 1 unit = 1 nmol sulfated product per hour at 37° C.", "protocol": "B. Expression in COS-1 cells. COS-1 cells were transfected with an EST cDNA expression construct in the eukaryotic expression vector p91023(B) as well as with vector alone using the DEAE-dextran method (H. Luthman et al., Nucleic Acids Res., 11, 1295-1308 (1983)). After harvesting, cell pellets were washed with 5 ml of phosphate buffered saline (PBS) and were homogenized for 30 seconds in 2 ml of 5 mM potassium phosphate buffer, pH 6.5. The homogenates were centrifuged at 15,000×g for 15 minutes at 4° C., and supernatants were centrifuged at 100,000×g for 1 hour at 4° C. Five μl aliquots of the 100,000×g \"high-speed supernatants\" (HSS) were assayed for ST enzymatic activities.\nA. Sulfotransferase (ST) activities. The abilities of EST and DHEA ST to catalyze sulfation of various substrates were compared.\nOne unit of enzyme activity represented the formation of 1 nmol of sulfated product per hour of incubation at 37° C. All assays were performed in triplicate, and values reported are averages of those three determinations. Protein concentrations were measured by the method of Bradford (Anal. Biochem., 72, 248-254 (1976)) with bovine serum albumin as a standard."}, "human liver DHEA ST [2]": {"target": "T2, human liver DHEA ST (Homo sapiens, UniProt Q06520)", "T2 sequence (Q06520 1-285)": "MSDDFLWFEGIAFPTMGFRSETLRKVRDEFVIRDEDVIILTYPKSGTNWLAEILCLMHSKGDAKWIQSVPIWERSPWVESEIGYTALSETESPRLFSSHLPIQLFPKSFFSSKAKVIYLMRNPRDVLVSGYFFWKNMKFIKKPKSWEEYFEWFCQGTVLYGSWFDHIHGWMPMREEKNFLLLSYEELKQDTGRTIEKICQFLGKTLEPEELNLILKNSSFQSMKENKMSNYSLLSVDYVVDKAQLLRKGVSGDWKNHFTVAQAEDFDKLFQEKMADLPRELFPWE", "assay": "DCNP inhibition of DHEA ST activity", "type": "biochemical", "set-up": "expressed in transfected cells; host or cells: COS-1 cells; high-speed supernatant", "details": "DHEA as substrate; expressed in COS-1 cells; read-out: mean DCNP concentration at which DHEA ST activity was 50% inhibited", "protocol": "(§1) D. DCNP inhibition of EST activity. […] EST activity (using its preferred substrate, estrone) and DHEA ST activity (using its preferred substrate, DHEA) were 50% inhibited at very similar mean DCNP concentrations, 28±2.9 and 40±2.3 μM, respectively (FIG. 4B)."}, "human liver EST [3]": {"target": "T1, human liver EST", "assay": "DCNP inhibition of EST activity", "type": "biochemical", "set-up": "expressed in transfected cells; host or cells: COS-1 cells, vector p91023(B); 100,000×g high-speed supernatant", "details": "estrone as substrate; expressed in COS-1 cells; read-out: mean DCNP concentration at which EST activity was 50% inhibited", "protocol": "as §1"}, "human liver DHEA ST [4]": {"target": "T2, human liver DHEA ST", "details": "75 mM NaCl; DHEA as substrate", "protocol": "(§2) Biochemical characterization of human EST were carried out using aliquots of HSS from COS-1 cells transfected with human liver EST cDNA. Parallel experiments were performed with human liver DHEA ST cDNA (D. M. Otterness et at., Mol. Pharmacol., 41, 865-872 (1992)) that had also been transiently expressed in COS-1 cells.\n(§3) E. Effect of NaCl concentration on EST activity."}, "human liver EST [5]": {"target": "T1, human liver EST", "details": "150 mM NaCl; estrone as substrate; expressed in COS-1 cells", "protocol": "as §2, §3"}, "human EST": {"test_system": "human EST", "assay": "Optimization of EST assay conditions and preferred substrate", "type": "biochemical", "details": "compared with estradiol-17β, ethinyl estradiol or DHEA", "excerpt": "1. Identification of the preferred substrate for human EST.\n2. Optimization of EST assay conditions. Estrone was used as the substrate to determine optimal assay conditions and, subsequently, to characterize the properties of human EST."}, "[6]": {"substrate": "C[C@]12CC[C@@H]3c4ccc(O)cc4CC[C@H]3[C@@H]1CCC2=O", "assay": "Substrate kinetics (apparent Km) of ST activity, DHEA ST", "type": "biochemical, human", "details": "other: substance is the substrate; DHEA ST cDNA expressed in COS-1 cells", "protocol": "(§4) B. Kinetics of ST activity. Substrate kinetic studies designed to estimate apparent Km values were performed. Since human liver EST and DHEA ST can both catalyze the sulfation of steroids, these studies presented an opportunity to determine apparent Km values of the two enzymes with estrone and DHEA as substrates. Both enzyme preparations were tested with a range of estrone and DHEA concentrations. […] Apparent Km values were calculated by the method of Wilkinson (Biochem. J., 80, 324-332 (1961)) with a computer program written by Cleland (Nature, 198, 463-465 (1963))."}, "[7]": {"substrate": "C[C@]12CC[C@H](O)CC1=CC[C@@H]1[C@@H]2CC[C@]2(C)C(=O)CC[C@@H]12", "assay": "Substrate kinetics (apparent Km) of ST activity, DHEA ST", "type": "biochemical, human", "details": "other: substance is the substrate; DHEA ST cDNA expressed in COS-1 cells", "protocol": "as §4"}, "human liver DHEA ST [8]": {"target": "T2, human liver DHEA ST", "assay": "Thermal inactivation of ST activity, DHEA ST", "type": "physicochemical", "set-up": "expressed in transfected cells; host or cells: COS-1 cells; high-speed supernatant", "details": "preincubated 15 minutes; DHEA as substrate; HSS from COS-1 cells", "protocol": "(§5) C. Thermal inactivation of ST activity. […] The temperatures at which 50% inactivation of EST (using its preferred substrate, estrone) and DHEA ST (using its preferred substrate, DHEA) activities occurred were 38.2±0.12 (mean±SEM) and 41.1±0.10° C., respectively (FIG. 4A). For the thermal inactivation experiment, HSS from COS-1 cells transfected with EST cDNA or DHEA ST cDNA was diluted 1:2 (v/v) with 5 mM potassium phosphate buffer, pH 6.5, preincubated at various temperatures for 15 minutes and was then placed on ice. An aliquot of the same preparation was kept on ice as a control. Each aliquot was then diluted further for assay of the ST activity being measured. Values for controls were determined at each temperature studied."}, "[9]": {"substrate": "C[C@]12CC[C@@H]3c4ccc(O)cc4CC[C@H]3[C@@H]1CCC2=O", "assay": "Substrate kinetics (apparent Km) of ST activity, EST", "type": "biochemical, human", "details": "other: substance is the substrate; EST cDNA expressed in COS-1 cells", "protocol": "as §4"}, "[10]": {"substrate": "C[C@]12CC[C@H](O)CC1=CC[C@@H]1[C@@H]2CC[C@]2(C)C(=O)CC[C@@H]12", "assay": "Substrate kinetics (apparent Km) of ST activity, EST", "type": "biochemical, human", "details": "other: substance is the substrate; EST cDNA expressed in COS-1 cells", "protocol": "as §4"}, "human liver EST [11]": {"target": "T1, human liver EST", "assay": "Thermal inactivation of ST activity, EST", "type": "physicochemical", "set-up": "expressed in transfected cells; host or cells: COS-1 cells, vector p91023(B); 100,000×g high-speed supernatant", "details": "preincubated 15 minutes; estrone as substrate; HSS from COS-1 cells", "protocol": "as §5"}},
  "data": [
    {"molecule": "NCCc1ccc(O)c(O)c1", "note": "[dopamine]", "values": [
      {"measurement": "sulfation catalyzed by the protein encoded by the human liver EST cDNA", "setting": "human liver EST [1]", "result": "not"}
    ]},
    {"molecule": "O=[N+]([O-])c1cc(Cl)c(O)c(Cl)c1", "note": "[DCNP, 2,6-dichloro-4-nitrophenol]", "values": [
      {"measurement": "IC50", "setting": "human liver DHEA ST [2]", "result": "40 ± 2.3", "unit": "µM"},
      {"measurement": "IC50", "setting": "human liver EST [3]", "result": "28 ± 2.9", "unit": "µM"}
    ]},
    {"molecule": "O=[N+]([O-])c1ccc(O)cc1", "note": "[4-nitrophenol]", "values": [
      {"measurement": "sulfation catalyzed by the protein encoded by the human liver EST cDNA", "setting": "human liver EST [1]", "result": 5, "unit": "units/mg protein"}
    ]},
    {"molecule": "[Cl-].[Na+]", "note": "[NaCl]", "values": [
      {"measurement": "peak activation of human liver DHEA ST", "setting": "human liver DHEA ST [4]", "result": 62, "unit": "%"},
      {"measurement": "increase of human liver EST activity", "setting": "human liver EST [5]", "result": 86, "unit": "%"}
    ]},
    {"molecule": "C[C@]12CC[C@H](O)CC1=CC[C@@H]1[C@@H]2CC[C@]2(C)C(=O)CC[C@@H]12", "note": "[DHEA, dehydroepiandrosterone]", "values": [
      {"measurement": "sulfation catalyzed by the protein encoded by the human liver EST cDNA", "setting": "human liver EST [1]", "result": 2.3, "unit": "units/mg protein"}
    ]},
    {"molecule": "C[C@]12CC[C@@H]3c4ccc(O)cc4CC[C@H]3[C@@H]1CCC2=O", "note": "[estrone]", "values": [
      {"measurement": "ST enzyme activity as sulfate acceptor substrate, compared with other substrates", "setting": "human EST", "result": "greater ST enzyme activity"},
      {"measurement": "sulfation catalyzed by the protein encoded by the human liver EST cDNA", "setting": "human liver EST [1]", "result": 9, "unit": "units/mg protein"}
    ]},
    {"molecule": "human liver DHEA ST (Homo sapiens) (protein, expressed in transfected cells; host or cells: COS-1 cells; high-speed supernatant) MSDDFLWFEGIAFPTMGFRSETLRKVRDEFVIRDEDVIILTYPKSGTNWLAEILCLMHSKGDAKWIQSVPIWERSPWVESEIGYTALSETESPRLFSSHLPIQLFPKSFFSSKAKVIYLMRNPRDVLVSGYFFWKNMKFIKKPKSWEEYFEWFCQGTVLYGSWFDHIHGWMPMREEKNFLLLSYEELKQDTGRTIEKICQFLGKTLEPEELNLILKNSSFQSMKENKMSNYSLLSVDYVVDKAQLLRKGVSGDWKNHFTVAQAEDFDKLFQEKMADLPRELFPWE", "values": [
      {"measurement": "Km", "setting": "[6]", "result": 3.1, "unit": "µM"},
      {"measurement": "Km", "setting": "[7]", "result": 2.6, "unit": "µM"},
      {"measurement": "temperature at which 50% inactivation of DHEA ST activity occurred (mean±SEM)", "setting": "human liver DHEA ST [8]", "result": "41.1±0.10", "unit": "°C"}
    ]},
    {"molecule": "human liver EST (Homo sapiens) (protein, expressed in transfected cells; host or cells: COS-1 cells, vector p91023(B); 100,000×g high-speed supernatant) MNSELDYYEKFEEVHGILMYKDFVKYWDNVEAFQARPDDLVIATYPKSGTTWVSEIVYMIYKEGDVEKCKEDVIFNRIPFLECRKENLMNGVKQLDEMNSPRIVKTHLPPELLPASFWEKDCKIIYLCRNAKDVAVSFYYFFLMVAGHPNPGSFPEFVEKFMQGQVPYGSWYKHVKSWWEKGKSPRVLFLFYEDLKEDIRKEVIKLIHFLERKPSEELVDRIIHHTSFQEMKNNPSTNYTTLPDEIMNQKLSPFMRKGITGDWKNHFTVALNEKFDKHYEQQMKESTLKFRTEI", "values": [
      {"measurement": "Km", "setting": "[9]", "result": 0.17, "unit": "µM"},
      {"measurement": "Km", "setting": "[10]", "result": 0.85, "unit": "µM"},
      {"measurement": "temperature at which 50% inactivation of EST activity occurred (mean±SEM)", "setting": "human liver EST [11]", "result": "38.2±0.12", "unit": "°C"}
    ]}
  ]
}
